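Where inhibition never reached the appropriate level, the endpoint shown equals the highest concentration tested. Otherwise, values were interpolated linearly from a five-concentration, 48-hour dose response in 96-well plates. TGI is the concentration that stops growth completely.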
Legend:
Test in all cases: NCI-60 cell line screen, 48 h
[1] = test system: HOP-62 NSCLC
[2] = test system: HCT-116 colon
[3] = test system: RXF 393 renal
[4] = test system: SF-268 CNS
[5] = test system: U251 CNS
[6] = test system: BT-549 breast
[7] = test system: CCRF-CEM leukemia
[8] = test system: A549 NSCLC
[9] = test system: SNB-19 CNS
[10] = test system: SN12C renal
[11] = test system: HS 578T breast
[12] = test system: CAKI-1 renal
[13] = test system: NCI-H226 lung
[14] = test system: OVCAR-5 ovarian
[15] = test system: SF-295 CNS
[16] = test system: SW-620 colon
[17] = test system: MDA-MB-231 breast
[18] = test system: MALME-3M melanoma
[19] = test system: NCI/ADR-RES ovarian
[20] = test system: UACC-62 melanoma
[21] = test system: ACHN renal
[22] = test system: SR leukemia
[23] = test system: PC-3 prostate
[24] = test system: K-562 leukemia
[25] = test system: MDA-MB-435
[26] = test system: IGROV1 ovarian
[27] = test system: M14 melanoma
[28] = test system: SK-MEL-5 melanoma
[29] = test system: T-47D breast
[30] = test system: UACC-257 melanoma
[31] = test system: KM12 colon
[32] = test system: HL-60(TB) leukemia
[33] = test system: OVCAR-4 ovarian
[34] = test system: OVCAR-3 ovarian
[35] = test system: HCT-15 colon
[36] = test system: A498 renal
[37] = test system: HOP-92 NSCLC
[38] = test system: NCI-H522 lung
[39] = test system: NCI-H23 lung
[40] = test system: UO-31 renal
[41] = test system: NCI-H460 lung
[42] = test system: MDA-N
[43] = test system: 786-0 renal
[44] = test system: TK-10 renal
[45] = test system: OVCAR-8 ovarian
[46] = test system: EKVX NSCLC
[47] = test system: SK-MEL-2 melanoma
[48] = test system: MOLT-4 leukemia
[49] = test system: LOX IMVI melanoma
[50] = test system: RPMI-8226 leukemia
[51] = test system: SK-MEL-28 melanoma
[52] = test system: HT29 colon
[53] = test system: SK-OV-3 ovarian
[54] = test system: COLO 205 colon
[55] = test system: MCF7 breast
[56] = test system: DU-145 prostate
[57] = test system: SF-539 CNS
[58] = test system: SNB-75 CNS
[59] = test system: HCC-2998 colon

Compound `NC(Cc1ccccc1)P(=O)(O)O` (stereo unspecified) has a TGI [1] of over 100 µM, a TGI [2] of over 100 µM and a TGI [3] of over 100 µM. The TGI [4] was over 100 µM, the TGI [5] was over 100 µM and the TGI [6] was over 100 µM. It also gave a TGI [7] of over 100 µM, a TGI [8] of over 100 µM and a TGI [9] of over 100 µM. It also gave a TGI [10] of over 100 µM, a TGI [11] of over 100 µM and a TGI [12] of over 100 µM. For the same compound, the TGI [13] was over 100 µM, the TGI [14] was over 100 µM and the TGI [15] was over 100 µM. It also gave a TGI [16] of over 100 µM, a TGI [17] of over 100 µM and a TGI [18] of over 100 µM. It also gave a TGI [19] of over 100 µM, a TGI [20] of over 100 µM and a TGI [21] of over 100 µM. For the same compound, the TGI [22] was over 100 µM, the TGI [23] was over 100 µM and the TGI [24] was over 100 µM. The TGI [25] was over 100 µM, the TGI [26] was over 100 µM and the TGI [27] was over 100 µM. It also gave a TGI [28] of over 100 µM, a TGI [29] of over 100 µM and a TGI [30] of over 100 µM. The TGI [31] was over 100 µM, the TGI [32] was over 100 µM and the TGI [33] was over 100 µM. For the same compound, the TGI [34] was over 100 µM, the TGI [35] was over 100 µM and the TGI [36] was over 100 µM. It also gave a TGI [37] of over 100 µM, a TGI [38] of over 100 µM and a TGI [39] of over 100 µM. The TGI [40] was over 100 µM, the TGI [41] was over 100 µM and the TGI [42] was over 100 µM. It also gave a TGI [43] of over 100 µM, a TGI [44] of over 100 µM and a TGI [45] of over 100 µM. The TGI [46] was over 100 µM, the TGI [47] was over 100 µM and the TGI [48] was over 100 µM. The TGI [49] was over 100 µM, the TGI [50] was over 100 µM and the TGI [51] was over 100 µM. It also gave a TGI [52] of over 100 µM.
With `CCn1c2ccccc2c2cc(N=Nc3ccc(C#N)cc3)ccc21` the TGI [53] was over 100 µM, the TGI [1] was over 100 µM and the TGI [2] was over 100 µM. For the same compound, the TGI [4] was over 100 µM, the TGI [5] was over 100 µM and the TGI [6] was 57.1 µM. For the same compound, the TGI [7] was over 100 µM, the TGI [8] was over 100 µM and the TGI [9] was 71.6 µM. It also gave a TGI [10] of over 100 µM, a TGI [11] of over 100 µM and a TGI [12] of over 100 µM. It also gave a TGI [13] of over 100 µM, a TGI [14] of over 100 µM and a TGI [54] of over 100 µM. It also gave a TGI [15] of over 100 µM, a TGI [16] of over 100 µM and a TGI [17] of 59 µM. The TGI [18] was 52.7 µM, the TGI [55] was over 100 µM and the TGI [20] was over 100 µM. For the same compound, the TGI [56] was over 100 µM, the TGI [21] was over 100 µM and the TGI [23] was over 100 µM. The TGI [25] was over 100 µM, the TGI [26] was over 100 µM and the TGI [27] was over 100 µM. For the same compound, the TGI [28] was over 100 µM, the TGI [29] was over 100 µM and the TGI [30] was over 100 µM. For the same compound, the TGI [31] was over 100 µM, the TGI [32] was over 100 µM and the TGI [33] was over 100 µM. It also gave a TGI [34] of over 100 µM, a TGI [35] of over 100 µM and a TGI [36] of 70 µM. It also gave a TGI [37] of 79.7 µM, a TGI [38] of over 100 µM and a TGI [39] of 68.6 µM. The TGI [40] was over 100 µM, the TGI [41] was over 100 µM and the TGI [42] was over 100 µM. The TGI [43] was over 100 µM, the TGI [57] was over 100 µM and the TGI [44] was over 100 µM. For the same compound, the TGI [45] was over 100 µM, the TGI [46] was over 100 µM and the TGI [47] was over 100 µM. It also gave a TGI [48] of over 100 µM, a TGI [49] of 61.8 µM and a TGI [51] of over 100 µM. The TGI [52] was over 100 µM and the TGI [58] was 87.6 µM.
`COc1ccc(C2SC(N)=Nc3c2c(C)nn3C(=O)Cc2ccccc2)cc1` (stereo unspecified) was tested, and the TGI [53] was over 100 µM, the TGI [1] was over 100 µM and the TGI [2] was over 100 µM. For the same compound, the TGI [4] was over 100 µM, the TGI [6] was over 100 µM and the TGI [7] was over 100 µM. For the same compound, the TGI [8] was over 100 µM, the TGI [9] was over 100 µM and the TGI [10] was over 100 µM. The TGI [11] was over 100 µM, the TGI [59] was over 100 µM and the TGI [12] was over 100 µM. The TGI [13] was over 100 µM, the TGI [54] was over 100 µM and the TGI [15] was over 100 µM. It also gave a TGI [16] of over 100 µM, a TGI [17] of over 100 µM and a TGI [18] of over 100 µM. The TGI [55] was over 100 µM, the TGI [20] was over 100 µM and the TGI [56] was over 100 µM. For the same compound, the TGI [21] was over 100 µM, the TGI [22] was over 100 µM and the TGI [23] was over 100 µM. For the same compound, the TGI [24] was over 100 µM, the TGI [25] was over 100 µM and the TGI [26] was over 100 µM. The TGI [27] was over 100 µM, the TGI [28] was over 100 µM and the TGI [29] was over 100 µM. For the same compound, the TGI [30] was over 100 µM, the TGI [31] was over 100 µM and the TGI [32] was over 100 µM. For the same compound, the TGI [35] was over 100 µM, the TGI [36] was over 100 µM and the TGI [38] was over 100 µM. The TGI [39] was over 100 µM, the TGI [40] was over 100 µM and the TGI [41] was over 100 µM. For the same compound, the TGI [42] was over 100 µM, the TGI [43] was over 100 µM and the TGI [57] was over 100 µM. For the same compound, the TGI [44] was over 100 µM, the TGI [45] was over 100 µM and the TGI [46] was over 100 µM. The TGI [48] was over 100 µM, the TGI [49] was over 100 µM and the TGI [50] was over 100 µM. For the same compound, the TGI [51] was over 100 µM, the TGI [52] was over 100 µM and the TGI [58] was over 100 µM.
